The text below walks through data of article PMC8760490, “Discovery of novel furanylbenzamide inhibitors that target oncogenic tyrosine phosphatase SHP2 in leukemia cells” (The Journal of Biological Chemistry, 2021).

Assay [1] concerns the target T1, full-length SHP2 WT (SHP2-WT) (Homo sapiens, UniProt Q06124).
T1 construct: Recombinant human full-length SHP2 (1–594) WT and E76K mutants; made in house
Put plainly: DiFMUP fluorescence phosphatase inhibition assay, SHP2-WT activated with IRS-1 peptide. The format is biochemical. Conditions: DiFMUP at Km (60 μM), pH 6.0. The text has this: To test the synthesized compounds for their potential to inhibit SHP2 activity, a fluorescence intensity-based assay using 6,8-difluoro-4-methylumbelliferyl phosphate (DiFMUP) as the substrate was adapted for three recombinant SHP2 constructs: (1) the SHP2 catalytic domain (SHP2cat; residues 248–527), (2) the full-length SHP2-E76K oncogenic mutant, and (3) the full-length SHP2 WT (SHP2-WT). The recombinant SHP2 proteins were expressed and purified as described previously ([36]). A dually phosphorylated peptide derived from the insulin receptor substrate 1 (IRS-1) served as a surrogate binding protein and was used to activate SHP2-WT ([30], [36]). […] Michaelis–Menten experiments to determine the DiFMUP Michaelis–Menten constant (Km) for each SHP2 construct were performed as described previously ([36]) and yielded the following values: SHP2-WT, Km = 60 μM; SHP2-E76K, Km = 20 μM; and SHP2cat, Km = 20 μM. Relative maximum rates (Vmax) of the DiFMUP reactions expressed as relative fluorescence units per minute (RFU/min) were as follows: SHP2-WT, Vmax = 871 RFU/min; SHP2-E76K, Vmax = 2730 RFU/min; and SHP2cat, Vmax = 2912 RFU/min. IC50 values for each compound were determined from initial rates in 10-point dose–response assays using DiFMUP at a concentration corresponding to its Km value for the respective SHP2 construct. […] Replacements for the benzothiophenone were explored using analog #10.
Recombinant human full-length SHP2 (1–594) WT and E76K mutants, as well as the SHP2cat (248–527), were expressed and purified as described before ([36], [41]). Recombinant human PTP1B (1–300) and the codon-optimized STEP (280–566) catalytic domains were cloned into PET-15b and expressed as N-His-tagged fusion proteins. For expression, transformed BL21(DE3) cells were grown and induced similar as described for SHP2. Collected cells were resuspended in lysis buffer (25 mM Tris, pH 7.5, 300 mM NaCl, 50 mM imidazole, and 10% glycerol) with 100 mg/l RNaseA and were lysed with two passages using a microfluidizer. The lysate was clarified by centrifugation at 15,000g for 50 min and applied to nickel–nitrilotriacetic acid resin. The column resin was washed, and the PTP1B or STEP protein was eluted in lysis buffer at 300 mM imidazole. The PTP1B or STEP protein was further purified by S75 size-exclusion chromatography in 50 mM Tris, pH 7.5, 50 mM NaCl. The eluted peak fractions were supplemented with tris(2-carboxyethyl)phosphine to 10 mM, concentrated by ultrafiltration, and stored at −80 °C. The purified yield of PTP1B was 33 mg/l cell culture; the yield of STEP was 16 mg/l cell culture.
SHP2 inhibitors were tested at RT in a 384-well plate format standard phosphatase fluorescence intensity assay using DiFMUP (Invitrogen/Thermo Fisher Scientific) as a substrate and a total reaction volume of 25 μl. SHP2 inhibitors or vehicle (DMSO) were spotted in triplicate into a black Greiner FLUOTRAC 200 384-well microplate (catalog no.: 781076; Greiner) for a 10-point dose–response assay using an Echo 555 Liquid Handler (Labcyte, Inc). PTP working solutions were prepared at a 0.625 nM concentration (for a final concentration of 0.5 nM) in buffer containing 50 mM Bis–Tris, pH 6.0, 50 mM NaCl, 5 mM DTT, and 0.01% Tween-20. Prior to the assay, a dually phosphorylated IRS-1 peptide (625 nM [500 nM final] ([30])) was added to full-length WT SHP2 working solutions and incubated for 20 min. DiFMUP working solutions at 5× final concentration were prepared in 50 mM Bis–Tris, pH 6.0, 50 mM NaCl, and 0.01% Tween-20. About 20 μl of PTP working solution was dispensed into the microplate and incubated with inhibitor for 20 min at RT. […] The reaction was initiated by addition of 5 μl DiFMUP working solutions. Fluorescence intensity was measured in kinetic mode (every minute for 7 or 10 min) using a Tecan Spark Multimode Microplate Reader (Tecan) with an excitation wavelength of 360 nm and an emission wavelength of 460 nm. […]

Assay [2] relates to Kasumi-1 acute myeloid leukemia (AML) cells. Put plainly: Cell viability (CellTiter-Glo), Kasumi-1. The format is cell-based. Conditions: for effect on Kasumi-1 cell growth: various concentrations, 3 days. How it is done:
Inhibition of SHP2 has been reported to inhibit the growth of cancer cells including Kasumi-1 acute myeloid leukemia (AML) and KYSE-520 esophageal cancer cells ([30]). […] Thus, we treated two TNBC cell lines, BT-549 and MDA-MB-468, with SBI-4668 or the SHP2 allosteric inhibitor SHP099 at various concentrations and determined cell viability after 72 h, compared with the vehicle control (Fig. 4C). […] Next, we performed an 11-day colony formation assay with TNBC cells treated with SBI-4668 or SHP099 at 5, 10, or 20 μM (Fig. 4D).
Viability of AML and esophageal carcinoma cells was assessed using the ATP-depletion assay CellTiter-Glo (Promega). Cells were harvested at 1 × 10^6/ml to 2 × 10^6 cells/ml with cell numbers determined by trypan blue using the Countess Cell counter (Thermo Scientific) and resuspended in culture media. About 3000 cells (in 20 μl) were seeded in a 384-well format white and clear-bottom microplate (catalog no.: 781098; Greiner) spotted with test compound or vehicle control (DMSO) using an Echo 555 Liquid Handler. Cells were incubated for 3 days, before 10 μl of CellTiter-Glo reagent mix was added to each well and incubated for 10 min at RT. Luminescence was read on a Tecan Spark Multimode Microplate Reader, and data were analyzed using GraphPad Prism software.
(In general: Cellular ATP, detected with luciferase, serves as a proxy for viable cell number.)

`Nc1ccc(NC(=O)c2cc(-c3ccc(/C=C4\Sc5ccccc5C4=O)o3)ccc2O)cc1` [SBI-2130, (Z)-N-(4-Aminophenyl)-2-hydroxy-5-(5-((3-oxobenzo[b]thiophen-2(3H)-ylidene)methyl)furan-2-yl)benzamide] yielded an IC50 in assay [1] of 5 µM. Moreover, the “effect on Kasumi-1 cell growth” value in assay [2] is recorded as “dose-dependently inhibited cancer cell growth”.
For `O=C1CCCC1=Cc1ccc(-c2ccc(O)c(C(=O)Nc3ccccc3)c2)o1` [SBI-3192, 2-Hydroxy-5-(5-((2-oxocyclopentylidene)methyl)furan-2-yl)-N-phenylbenzamide], in assay [1], half-maximal inhibition (IC50) required 4.1 µM. That is a single-digit micromolar value.
For `N#Cc1cc(-c2ccc(/C=C3\Sc4ccccc4C3=O)o2)ccc1O` [SBI-3404, (Z)-2-Hydroxy-5-(5-((3-oxobenzo[b]thiophen-2(3H)-ylidene)methyl)furan-2-yl)benzonitrile], in assay [1], the IC50 is 11 µM. The “effect on Kasumi-1 cell growth” value in assay [2] was “dose-dependently inhibited cancer cell growth”.
`O=C1/C(=C/c2ccc(-c3ccc(O)c(-c4nn[nH]n4)c3)o2)Sc2ccccc21` [SBI-3405, (Z)-2-((5-(4-Hydroxy-3-(2H-tetrazol-5-yl)phenyl)furan-2-yl)methylene)benzo[b]thiophen-3(2H)-one] returned a half-maximal inhibitory concentration (IC50) in assay [1] of 4.2 µM.
As to `O=C(Nc1ccccc1)c1cc(-c2ccc(/C=C3\Sc4ccccc4C3=O)o2)ccc1O` [SBI-4668, (Z)-2-Hydroxy-5-(5-((3-oxobenzo[b]thiophen-2(3H)-ylidene)methyl)furan-2-yl)-N-phenylbenzamide], the IC50 in assay [1] stood at 15 µM; in assay [2] (Homo sapiens, Kasumi 1, 72 h, 3 days in culture), 8.5 µM. The “effect on Kasumi-1 cell growth” value in assay [2] is on record as “dose-dependently inhibited cancer cell growth”.

Usually IC50 stands for the midpoint of a concentration-inhibition curve. Read a low IC50 as greater potency.
